Measured values reported in US12203938B2, “Levetiracetam immunoassays” (ARK Diagnostics, Inc., priority 2008, dated 2025).

What was measured:
[1] = system: rabbit polyclonal antibody #12019-P8; experiment: Homogeneous enzyme immunoassay (ARK Assay) calibration curve on HITACHI 917, conjugate (44-G6PDH); assay type: binding
Procedure: Rabbit polyclonal antibody #12019-P8 was used to measure a substantial change in enzyme activity, generate a calibration curve, and evaluate assay precision, accuracy and specificity. The antibody was added into the antibody diluent to prepare the antibody reagent. The antibody reagent consists of antibody as prepared above, buffer, stabilizers, preservatives, and the substrates for the enzyme conjugate nicotinamide adenine dinucleotide (NAM and glucose-6-phosphate. Enzyme conjugate comprising compound (44-G6PDH) G6PDH was added into the conjugate reagent to prepare the enzyme conjugate reagent. The enzyme conjugate reagent comprises the conjugate, buffer, stabilizers and preservatives. Enzyme conjugate (44-G6PDH) was used with rabbit polyclonal antibody #12019-P8 in examples below. This technique is generally applicable to produce polyclonal antibodies to levetiracetam derivatives and assess their utility.
(§1) The levetiracetam derivative antibodies and enzyme conjugates may be advantageously used in a homogeneous assay format to detect levetiracetam in samples. An enzyme immunoassay or ARK Assay, which is a homogeneous enzyme immunoassay experiment, was performed to test antibodies prepared as described in Example 22. The ARK Assay for levetiracetam was conducted using a liquid, ready-to-use, two-reagent kit. A clinical chemistry analyzer useful to set up the assay is HITACHI 917. The HITACHI 917 is an automated biochemistry analyzer used by medical laboratories to process biological fluid specimens, such as urine, cerebrospinal fluid, and most commonly, blood. Manufactured by Boehringer Mannheim, the HITACHI 917 is a commonly used routine chemical chemistry. Levetiracetam containing sample was incubated with antibody reagent followed by the addition of the enzyme conjugate reagent. The enzyme conjugate activity decreases upon binding to the antibody. […] The oxidation of G6P is coupled with the reduction of NAD to NADH, which was measured at 340 nm. The change in the absorbance at 340 nm was measured spectrophotometrically. The levetiracetam concentration in a specimen was measured in terms of G6PDH activity. The increase in the rate at 340 nm was due to the formation of NADH and is proportional to the enzyme conjugate activity. An assay calibration curve was generated using levetiracetam spiked into negative calibrator matrix. The assay rate increases with increasing the concentration of drug in the sample.
Levetiracetam was dissolved in methanol to give a stock solution of 1000 μg/mL. Pooled human serum was aliquoted in 10 mL portions. Levetiracetam stock solution was added to the aliquots of human serum in preparing a series of known concentrations of levetiracetam calibrators ranging from 0 to 100 μg/mL. Similarly, Quality Control samples were prepared (15.0, 35.0 and 75.0 μg/mL). The antibody/substrate reagent #11341P4-6-Ab containing antibody ##12019-P8 was assayed with enzyme reagent #110607-D63-E containing conjugate (44-G6PDH). Calibration curves were generated on the HITACHI 917 automated clinical chemistry analyzer, as described in Example 23 by assaying each level in duplicate.

[2] = in vivo; cited from earlier work
[3] = system: antibody #12019-P8; experiment: Specificity / crossreactivity of the immunoassay with levetiracetam metabolite; assay type: binding, rabbit; settings: for % Cross Reactivity: 100 × apparent concentration of levetiracetam / concentration of crossreactant
From the text: Antibodies obtained using any of the disclosed techniques are screened or purified not only for their ability to react with levetiracetam, but for a low cross-reactivity with potential interfering substances. “Cross-reactivity” may be determined in a quantitative immunoassay by establishing a standard curve using known dilutions of the target analyte, levetiracetam. The standard curve is then used to calculate the apparent concentration of the interfering substance present in various known amounts in samples assayed under similar condition. The cross-reactivity can be calculated as the apparent concentration divided by the actual concentration multiplied by 100. A certain immunoassay for determining cross-reactivity is a homogeneous enzyme immunoassay using a wild type G6PDH as described in U.S. Pat. No. 3,817,837 or mutant G6PDH engineered to contain a cysteine per subunit as described in U.S. Pat. Nos. 6,033,890, 6,090,567 and 6,455,288. Furthermore, the cross-reactivity can be determined in the same type of immunoassay in which the antibody will ultimately be used.
as §1
The major metabolic pathway of levetiracetam (24% of dose) is an enzymatic hydrolysis of the acetamide group. The metabolites have no known pharmacological activity and are renally excreted. To human serum negative for levetiracetam was added levetiracetam dissolved in methanol to achieve a concentration of concentration of 30 μg/mL of levetiracetam (FIG. 1(1)).
To a second sample was added 2-pyrrolidone-N-butyric acid dissolved in methanol to achieve a concentration of 150.0 μg/mL 2-pyrrolidone-N-butyric acid (FIG. 1(2)). To a third sample was added 30 μg/mL of levetiracetam plus 406.4 μg/mL 2-pyrrolidone-N-butyric acid (FIG. 1(2)). The samples were assayed on the HITACHI 917. The levetiracetam metabolite, 2-pyrrolidone-N-butyric acid was tested in the immunoassay for potential crossreactivity with Enzyme Conjugate Reagent #110607-D63-E containing conjugate (44-G6PDH) and Antibody Reagent #11341P4-6-Ab containing antibody #12019-P8.

Row | Molecule | Reaction Rate (mA/min) Average of Duplicates ([1]; levetiracetam calibrator 5.0 μg/mL in pooled human serum) [mA/min] | Reaction Rate (mA/min) Average of Duplicates ([1]; levetiracetam calibrator 10.0 μg/mL in pooled human serum) [mA/min] | Reaction Rate (mA/min) Average of Duplicates ([1]; levetiracetam calibrator 25.0 μg/mL in pooled human serum) [mA/min] | Reaction Rate (mA/min) Average of Duplicates ([1]; levetiracetam calibrator 50.0 μg/mL in pooled human serum) [mA/min] | Reaction Rate (mA/min) Average of Duplicates ([1]; levetiracetam calibrator 100.0 μg/mL in pooled human serum) [mA/min] | Major metabolic pathway: enzymatic hydrolysis of the acetamide group [2] | Levetiracetam Result ([3]; Concentration Tested 30.0 μg/mL in human serum) [µg/mL] | % Cross Reactivity ([3]; Concentration Tested 30.0 μg/mL) [%] | Levetiracetam Result ([3]; Concentration Tested 150.0 μg/mL in human serum) [µg/mL] | % Cross Reactivity ([3]; Concentration Tested 150.0 μg/mL) [%] | Levetiracetam Result ([3]; Concentration Tested 406.4 μg/mL in human serum) [µg/mL] | % Cross Reactivity ([3]; Concentration Tested 406.4 μg/mL) [%] | Crossreactivity of antibody #12019-P8 (in words) ([3]; conjugate (44-G6PDH), HITACHI 917)
1 | CC[C@@H](C(N)=O)N1CCCC1=O (single isomer, unassigned) [Levetiracetam] | 547.4 | 561.2 | 586.9 | 607.5 | 626.0 | 24 % of dose | 29.9 | 100 | – | – | – | – | –
2 | 2-pyrrolidone-N-butyric acid | – | – | – | – | – | – | – | – | 0 | 0 | 0 | 0 | does not crossreact
